Measurements as given in ChEMBL document CHEMBL1149806, “Synthesis and antiproliferative activities of isoindigo and azaisoindigo derivatives” (Eur J Med Chem, 2008).

Assays:
KB [1] = assay: Antiproliferative activity against human KB cells at 10 uM after 72 hrs by MTS test; format: functional
HL-60 = assay: Antiproliferative activity against human HL60 cells at 10 uM after 72 hrs by MTS test; format: functional; settings: HL-60, 72 h
K562 = assay: Antiproliferative activity against human K562 cells at 10 uM after 72 hrs by MTS test; format: functional; settings: K562, 72 h
KB [2] = assay: Antiproliferative activity against human KB cells after 72 hrs by MTS test; format: functional, cell-based
KB [3] = assay: Antiproliferative activity against human KB cells at 0.25 nM after 72 hrs by MTS test; format: functional

Row | SMILES | inhibition at 10 µM (KB [1]) | inhibition at 10 µM (HL-60) | inhibition at 10 µM (K562) | IC50 (KB [2]) | inhibition at 0.00025 µM (KB [3])
1 | CC(=O)OC[C@H]1O[C@@H](N2C(=O)/C(=C3/C(=O)Nc4ccc(OC(F)(F)F)cc43)c3ccccc32)[C@H](OC(C)=O)[C@@H](OC(C)=O)[C@@H]1OC(C)=O | 0% | 4% | 3% | – | –
2 | O=C1Nc2ccccc2/C1=C1\C(=O)Nc2ccccc21 [ISOINDIGO] | 92% | 53% | 64% | 1.6 µM | –
3 | CC(=O)O[C@@]12CO[C@@H]1C[C@H](O)[C@@]1(C)C(=O)[C@H](O)C3=C(C)[C@@H](OC(=O)[C@H](O)[C@@H](NC(=O)OC(C)(C)C)c4ccccc4)C[C@@](O)([C@@H](OC(=O)c4ccccc4)[C@H]21)C3(C)C [DOCETAXEL] | – | 46% | 32% | – | 71%
